According to US8389557B2, “Triazole derivatives useful as Axl inhibitors” (Rigel Pharmaceuticals, Inc., priority 2005, dated 2013):

Target: T1, Axl (Homo sapiens, UniProt P30530)
T1 construct: endogenous in cells; host or cells: HeLa cells
T1 sequence (P30530 26-894): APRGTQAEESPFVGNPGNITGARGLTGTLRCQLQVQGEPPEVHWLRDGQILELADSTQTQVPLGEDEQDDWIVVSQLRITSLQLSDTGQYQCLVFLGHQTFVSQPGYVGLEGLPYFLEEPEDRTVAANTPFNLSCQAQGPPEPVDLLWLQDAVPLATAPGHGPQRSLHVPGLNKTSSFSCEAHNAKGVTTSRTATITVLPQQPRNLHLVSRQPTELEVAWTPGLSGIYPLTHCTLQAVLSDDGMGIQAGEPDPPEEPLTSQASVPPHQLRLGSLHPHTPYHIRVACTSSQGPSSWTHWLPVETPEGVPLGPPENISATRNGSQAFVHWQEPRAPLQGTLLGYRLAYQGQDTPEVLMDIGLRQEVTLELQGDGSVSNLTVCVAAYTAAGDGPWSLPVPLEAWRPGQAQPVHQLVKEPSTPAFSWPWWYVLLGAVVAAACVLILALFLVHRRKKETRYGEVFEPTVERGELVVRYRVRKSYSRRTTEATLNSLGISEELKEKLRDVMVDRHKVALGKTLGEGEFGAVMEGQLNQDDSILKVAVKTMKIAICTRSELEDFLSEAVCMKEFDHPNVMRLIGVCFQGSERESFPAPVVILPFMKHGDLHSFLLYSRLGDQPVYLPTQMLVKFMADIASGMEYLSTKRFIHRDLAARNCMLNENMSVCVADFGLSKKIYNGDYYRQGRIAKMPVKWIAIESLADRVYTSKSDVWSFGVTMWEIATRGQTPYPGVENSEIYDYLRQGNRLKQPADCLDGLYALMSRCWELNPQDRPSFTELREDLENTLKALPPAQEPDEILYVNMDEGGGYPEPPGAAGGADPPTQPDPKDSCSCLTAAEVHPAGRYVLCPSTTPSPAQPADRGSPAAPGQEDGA
Assay: Phospho-Akt in-cell Western assay (inhibition of Axl activity)
Assay type: cell-based
Method in brief: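 HeLa cells on poly-L-lysine, starved 24 h in 0.5% FCS DMEM with Axl/Fc 500 ng/mL, pre-treated with compound 1 h at 37° C. Axl stimulated 5 min by anti-Axl/anti-mouse antibody cross-linking. Fixed cells probed with anti-phospho-Akt and HRP secondary, chemiluminescence read.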

[1] = inhibition of Axl activity, Table 1
[2] = Table 5, Hela cells, Axl antibody cross-linking stimulation, phospho-Akt chemiluminescence

Structure (SMILES) | IC50 [1] [µM] | IC50 [2] [µM]
COc1ccc(Nc2nc(N)n(C(=O)c3ccc(OC(C)C)cc3)n2)cc1 [compound 117, 5-amino-1-(4-(iso-propoxy)phenyl)carbonyl-3-[4-(methoxy)phenylamino]-1H-1,2,4-triazole] | 1 to 10 | –
CCOc1ccc(Nc2nc(N)n(C(=O)c3ccc(OC(C)C)cc3)n2)cc1 [compound 118, 5-amino-3-[4-(ethoxy)phenylamino]-1-(4-(iso-propoxy)phenyl)carbonyl-1H-1,2,4-triazole] | 1 to 10 | –
CC(=O)Oc1ccccc1C(=O)n1nc(Nc2ccc3c(c2)OCCO3)nc1N [compound 119, 1-(2-(acetoxy)phenyl)carbonyl-5-amino-3-(1,4-benzodioxan-6-yl)amino-1H-1,2,4-triazole] | 1 to 10 | –
Nc1nc(Nc2ccc3c(c2)OCCO3)nn1C(=O)c1ccc(OC2CCCC2)cc1 [compound 120] | > 20 | –
COC(=O)COc1ccc(C(=O)n2nc(Nc3ccc4c(c3)OCCO4)nc2N)cc1 [compound 126, 5-amino-3-(1,4-benzodioxan-6-yl)amino-1-[4-(methoxycarbonylmethoxy)phenyl)carbonyl-1H-1,2,4-triazole] | 1 to 10 | –
Nc1nc(Nc2ccc3c(c2)OCCO3)nn1C(=O)c1cccc(OC2CCCC2)c1 [compound 127, 5-amino-1-(3-(cyclopentoxy)phenyl)carbonyl-3-(1,4-benzodioxan-6-yl)amino-1H-1,2,4-triazole] | 1 to 10 | –
CCOc1cccc(C(=O)n2nc(Nc3ccc4c(c3)OCCO4)nc2N)c1 [compound 128, 5-amino-1-(3-(ethoxy)phenyl)carbonyl-3-(1,4-benzodioxan-6-yl)amino-1H-1,2,4-triazole] | > 20 | –
Cc1cccc(C(=O)n2nc(Nc3ccc4oc(COC5CCCCO5)cc4c3)nc2N)c1 (stereo not drawn) [compound 130, 5-amino-3-[N-(2-(tetrahydropyran-2-yloxy)methylbenzofuran-5-yl)-amino]-1-(3-(methyl)phenyl)carbonyl-1H-1,2,4-triazole] | – | 1 to 10
Cc1cccc(C(=O)n2nc(Nc3ccc4oc(CO)cc4c3)nc2N)c1 [compound 136, 5-amino-3-(2-(hydroxymethyl)benzofuran-5-yl)amino-1-(3-(methyl)phenyl)carbonyl-1H-1,2,4-triazole] | – | 1 to 10
COC(=O)COc1cccc(C(=O)n2nc(Nc3ccc4c(c3)OCCO4)nc2N)c1 [compound 138, 5-amino-3-(1,4-benzodioxan-6-yl)amino-1-[3-(methoxycarbonylmethoxy)phenyl)carbonyl-1H-1,2,4-triazole] | 1 to 10 | –
Nc1nc(Nc2ccc3c(c2)OCCO3)nn1C(=O)c1ccc(OCc2ccccc2)cc1 [compound 142, 5-amino-1-(4-(benzyloxy)phenyl)carbonyl-3-(1,4-benzodioxan-6-yl)amino-1H-1,2,4-triazole] | 1 to 10 | –
Cc1cccc(C(=O)n2nc(Nc3cccc(OCC(=O)NCC4COC(C)(C)O4)c3)nc2N)c1 (stereo not drawn) [compound 148] | 1 to 10 | –
Nc1nc(Nc2ccc3c(c2)OCCO3)nn1C(=O)c1ccc(OCCN2CCOCC2)cc1 [compound 149, 5-amino-3-(1,4-benzodioxan-6-yl)amino-1-[4-[2-(morpholin-4-yl)ethoxy]phenyl]carbonyl-1H-1,2,4-triazole] | 1 to 10 | –

The remaining lines, values ahead:

IC50 [1] [µM] | IC50 [2] [µM] | Structure (SMILES)
1 to 10 | – | COc1cccc(Nc2nc(N)n(C(=O)c3ccc(OC(C)C)cc3)n2)c1 [compound 121, 5-amino-1-(4-(iso-propoxy)phenyl)carbonyl-3-[3-(methoxy)phenylamino]-1H-1,2,4-triazole]
1 to 10 | – | CC(C)Oc1ccc(C(=O)n2nc(Nc3cccc(OC(C)C)c3)nc2N)cc1 [compound 122, 5-amino-3-[3-(iso-propoxy)phenylamino]-1-(4-(iso-propoxy)phenyl)carbonyl-1H-1,2,4-triazole]
10 to 20 | – | Cc1ccc(C(=O)n2nc(Nc3ccc(F)cc3)nc2N)cc1 [compound 123, 5-amino-3-[4-(fluoro)phenylamino]-1-(4-(methyl)phenyl)carbonyl-1H-1,2,4-triazole]
10 to 20 | – | Cc1ccc(C(=O)n2nc(Nc3cccc(F)c3)nc2N)cc1 [compound 124, 5-amino-3-[3-(fluoro)phenylamino]-1-(4-(methyl)phenyl)carbonyl-1H-1,2,4-triazole]
1 to 10 | – | CCOc1cccc(Nc2nc(N)n(C(=O)c3ccc(OC(C)C)cc3)n2)c1 [compound 125, 5-amino-3-[3-(ethoxy)phenylamino]-1-(4-(iso-propoxy)phenyl)carbonyl-1H-1,2,4-triazole]
> 20 | – | Cc1ccc(C(=O)n2nc(Nc3ccccc3F)nc2N)cc1 [compound 129, 5-amino-3-[2-(fluoro)phenylamino]-1-(4-(methyl)phenyl)carbonyl-1H-1,2,4-triazole]
> 20 | – | Cc1ccc(Nc2nc(N)n(C(=O)c3ccc(C)cc3)n2)cc1 [compound 131, 5-amino-3-[4-(methyl)phenylamino]-1-(4-(methyl)phenyl)carbonyl-1H-1,2,4-triazole]
1 to 10 | – | COc1ccc(Nc2nc(N)n(C(=O)c3ccc(C)cc3)n2)cc1 [compound 132, 5-amino-3-[4-(methoxy)phenylamino]-1-(4-(methyl)phenyl)carbonyl-1H-1,2,4-triazole]
1 to 10 | – | Cc1ccc(C(=O)n2nc(Nc3cccc(C)c3)nc2N)cc1 [compound 133, 5-amino-3-[3-(methyl)phenylamino]-1-(4-(methyl)phenyl)carbonyl-1H-1,2,4-triazole]
1 to 10 | – | COc1cccc(Nc2nc(N)n(C(=O)c3ccc(C)cc3)n2)c1 [compound 134, 5-amino-3-[3-(methoxy)phenylamino]-1-(4-(methyl)phenyl)carbonyl-1H-1,2,4-triazole]
1 to 10 | – | COC(=O)COc1cccc(Nc2nc(N)n(C(=O)c3ccc(OC(C)C)cc3)n2)c1 [compound 135, 5-amino-1-(4-(iso-propoxy)phenyl)carbonyl-3-[3-(methoxycarbonylmethoxy)phenylamino]-1H-1,2,4-triazole]
> 20 | – | Cc1ccc(C(=O)n2nc(Nc3ccccc3)nc2N)cc1 [compound 137, 5-amino-1-(4-(methyl)phenyl)carbonyl-3-phenylamino-1H-1,2,4-triazole]
> 20 | – | CC(C)Oc1ccc(C(=O)n2nc(Nc3cccc(OCC(F)(F)F)c3)nc2N)cc1 [compound 139, 5-amino-1-(4-(iso-propoxy)phenyl)carbonyl-3-[3-(2,2,2-trifluoroethoxy)phenylamino]-1H-1,2,4-triazole]
> 20 | – | COc1ccccc1Nc1nc(N)n(C(=O)c2ccc(C)cc2)n1 [compound 143, 5-amino-3-[2-(methoxy)phenylamino]-1-(4-(methyl)phenyl)carbonyl-1H-1,2,4-triazole]
> 20 | – | Cc1ccc(C(=O)n2nc(Nc3ccccc3C)nc2N)cc1 [compound 144, 5-amino-3-[2-(methyl)phenylamino]-1-(4-(methyl)phenyl)carbonyl-1H-1,2,4-triazole]
1 to 10 | – | CNC(=O)COc1cccc(Nc2nc(N)n(C(=O)c3cccc(C)c3)n2)c1 [compound 146, 5-amino-3-[3-(methylaminocarbonylmethoxy)phenylamino]-1-(3-(methyl)phenyl)carbonyl-1H-1,2,4-triazole]
1 to 10 | – | COC(=O)COc1cccc(Nc2nc(N)n(C(=O)c3cccc(C)c3)n2)c1 [compound 147, 5-amino-3-[3-(methoxycarbonylmethoxy)phenylamino]-1-(3-(methyl)phenyl)carbonyl-1H-1,2,4-triazole]
